Results: patent publication US9206186B2, “2-phenoxy- and 2-phenylsulfonamide derivatives with CCR3 antagonistic activity for the treatment of inflammatory or immunological disorders” (AXIKIN PHARMACEUTICALS, INC., priority 2003, dated 2015)
Structures can show the parent of a compound that is named as a salt.

Columns and labels:
[1] = target: T1, Human CCR3 (Homo sapiens, UniProt P51677); assay: Calcium mobilization assay (Ca2+), eotaxin-stimulated human CCR3-transformed K562 cells; assay type: cell-based; details: compounds of about 40 to 90% purity, read-out: Activity grade IC50
T1 construct: The cloned CCR3 cDNA was constructed with pcDNA3 vector and transfected into a K562 cell line; expressed in transfected cells
T1 sequence (P51677 1-355): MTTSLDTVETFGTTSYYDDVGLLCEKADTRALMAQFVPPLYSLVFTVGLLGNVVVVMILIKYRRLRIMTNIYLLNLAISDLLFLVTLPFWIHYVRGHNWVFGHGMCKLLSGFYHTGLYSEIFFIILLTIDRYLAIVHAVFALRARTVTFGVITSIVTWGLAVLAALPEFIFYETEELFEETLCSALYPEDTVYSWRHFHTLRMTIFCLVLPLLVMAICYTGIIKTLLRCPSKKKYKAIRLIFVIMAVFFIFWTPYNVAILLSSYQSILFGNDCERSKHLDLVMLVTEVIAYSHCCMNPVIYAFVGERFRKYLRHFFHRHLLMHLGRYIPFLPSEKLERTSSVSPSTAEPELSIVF
Method: • Human CCR3-transformed K562 cells were used. The cloned CCR3 cDNA was constructed with pcDNA3 vector and transfected into a K562 cell line. The human CCR3-transformed K562 cells were maintained in RPMI-1640 (Cat.#22400-089, Life Technologies) supplemented with 10% FCS (Cat.#A-1115-L, Hyclone), 55 μM 2-mercaptoethanol (Cat.#21985-023, Life Technologies), 1 mM sodium pyruvate (Cat.#11360-070, Life Technologies), 100 units/ml of penicillin G and 100 μg/ml of streptomycin (Cat.#15140-122, Life Technologies), and 0.4 mg/ml of Geneticin (Cat.#10131-035, Life Technologies) (hereinafter called “culture medium”). Before the receptor binding assay, cells were pretreated with 5 mM sodium butyrate (Cat.#193-01522, Wako)-containing the culture medium (2×10^5 cells/ml) for 20-24 hours to increase the expression of CCR3. (2) Receptor Binding Assay • Butyrate-pretreated cells, suspended in binding buffer (25 mM HEPES pH 7.6, 1 mM CaCl2, 5 mM MgCl2, 0.5% BSA, 0.1% NaN3) at a cell density of 2×10^6 cells/ml, were added into 60 μl/well in the 96-well round bottom polypropylene plate (Cat.#3365, Costar). Compounds, diluted with the binding buffer (4-times higher concentration of the final concentration), were added into 30 μl/well in the polypropylene plate. [^125I]-labeled human eotaxin (Cat.#IM290, Amersham Pharmacia Biotech), diluted with the binding buffer at the concentration of 0.4 nM (final concentration; 0.1 nM), was added into 30 μl/well in the polypropylene plate. Total 120 μl/well of binding reaction mixture (60 μl/well of cell suspension, 30 μl/well of compound solution, and 30 μl/well of [^125I]-labeled eotaxin) were incubated in the polypropylene plate for 1 hour at room temperature after the incubation, 100 μl/well of the reaction mixture was transferred to a filtration plate (Cat.#MAFB-N0B, Millipore), and washed with the washing buffer (25 mM HEPES pH 7.6, 1 mM CaCl2, 5 mM MgCl2, 0.5% BSA, 0.1% NaN3, 0.5 M NaCl) twice. The 96-well filtration plate was pretreated with 100 μl/well of 0.5% polyethylenimine (Cat.#P-3143, Sigma) for 2-4 hours at room temperature and washed with the washing buffer twice before use. The non-specific binding was determined by parallel incubation in the presence of 500 nM of non-labeled eotaxin (Cat.#23209, Genzyme Techne). The radioactivities remained on the filter were measured by liquid scintillation counter (TopCount™, Packard) after an addition of 45 μl/well of scintillant (Microscint20, Cat.#6013621, Packard). The inhibition percent at each concentration of compound was calculated, and IC50 values were determined from the inhibition curve. [Determination of IC50 Values of Compounds in Calcium Mobilization Assay] (1) Cell • Human CCR3-transformed K562 cells were used. The human CCR3-transformed K562 cells were maintained in RPMI-1640 supplemented with 10% FCS, 55 μM 2-mercaptoethanol (Cat.#21985-023, Life Technologies), 1 mM sodium pyruvate, 100 units/ml of penicillin G and 100 μg/ml of streptomycin, and 0.4 mg/ml of Geneticin. Before the calcium mobilization assay, cells were pretreated with 5 mM sodium butyrate-containing the culture medium (2×10^5 cells/ml) for 20-24 hours to increase the expression of CCR3. (2) Calcium Mobilization Assay • Butyrate-pretreated cells were loaded with Fluo-3AM (Cat.#F-1242, Molecular Probes) in loading buffer (Hanks' solution Cat.#05906 Nissui, 20 mM HEPES pH 7.6, 0.1% BSA, 1 mM probenecid Cat.#P-8761 Sigma, 1 μM Fluo-3AM, 0.01% pluronic F-127 Cat.#P-6866 Molecular Probes) at a cell density of 1×10^7 cells/ml. Then, cells were washed with calcium assay buffer (Hanks' solution Cat.#05906 Nissui, 20 mM HEPES pH 7.6, 0.1% BSA, 1 mM Probenecid Cat.#P-8761 Sigma). The cell suspension (3.3×10^6 cells/ml) was added into 60 μl/well in the 96-well clear bottom black plate (Cat.#3904, Costar). Compounds, diluted (5-times concentration of the final concentration) with the calcium assay buffer, were added into 20 μl/well in the plate 10 minutes before assay. […]

Row | Compound | melting point | IC50 [1]
1 | N#Cc1ccc(Oc2cc(Cl)cc(Cl)c2)c(S(=O)(=O)C2CCNCC2)c1 (as salt: hydrochloride) [Example 2-1, 4-(3,5-Dichloro-phenoxy)-3-(piperidine-4-sulfonyl)-benzonitrile] | 220 to 226 °C (dec.) | 
2 | O=[N+]([O-])c1ccc(Sc2cc(Cl)cc(Cl)c2)c(S(=O)(=O)N[C@H]2CN3CCC2CC3)c1 (stereo in doubt) | 256 °C | 
3 | CC(C)(C)[Si](C)(C)O[C@H]1CN(C2CCN(S(=O)(=O)c3cc(C#N)ccc3Oc3cc(Cl)cc(Cl)c3)CC2)C[C@@H]1O [Example 1-14] |  | 0.1 to 0.5 µM
4 | N#Cc1ccc(Oc2cc(Cl)cc(Cl)c2)c(S(=O)(=O)N2CC[C@H](N(CCO)CCO)C2)c1 [Example 1-15] | 153 to 154 °C | 0.1 to 0.5 µM
5 | N#Cc1ccc(Oc2cc(Cl)cc(Cl)c2)c(S(=O)(=O)N[C@@H]2CC3OC3C[C@@H]2N)c1 (stereo partly drawn) [Example 1-17] | 165 to 182 °C (dec.) | > 0.5 µM
6 | N#Cc1ccc(Oc2cc(Cl)cc(Cl)c2)c(S(=O)(=O)N2CC[C@H](N3C[C@H](O)[C@@H](O)C3)C2)c1 [Example 1-18] |  | 0.1 to 0.5 µM
7 | N#Cc1ccc(Oc2cc(Cl)cc(Cl)c2)c(S(=O)(=O)N[C@@H]2C[C@H](O)[C@@H](O)C[C@@H]2N)c1 [Example 1-19] |  | > 0.5 µM
8 | Cl.Cl.N#Cc1ccc(Oc2cc(Cl)cc(Cl)c2)c(S(=O)(=O)N2CCNC(CN)C2)c1 (stereo not drawn) [Example 1-20] | 240 to 241 °C | > 0.5 µM
9 | CN(C)CCN(C)CCN(C)S(=O)(=O)c1cc(C#N)ccc1Oc1cc(Cl)cc(Cl)c1 [Example 1-23] |  | 0.1 to 0.5 µM
10 | N#Cc1ccc(Oc2cc(Cl)cc(Cl)c2)c(S(=O)(=O)NC2CCCCNC2=O)c1 (stereo not drawn) [Example 1-24] | 172 to 173 °C | 0.1 to 0.5 µM
11 | COC(=O)C1CN(C2CCNCC2)CCCN1S(=O)(=O)c1cc(C#N)ccc1Oc1cc(Cl)cc(Cl)c1 (stereo not drawn) [Example 1-25] |  | 0.1 to 0.5 µM
12 | O=S(=O)(c1cc(-n2cnnn2)ccc1Oc1cc(Cl)cc(Cl)c1)N1CCNCC1 [Example 1-30] |  | > 0.5 µM
13 | N#Cc1ccc(Oc2cc(Cl)cc(Cl)c2)c(S(=O)(=O)N(CCN2C(=O)CCC2=O)[C@H]2CN3CCC2CC3)c1 [Example 1-38] |  | > 0.5 µM
14 | CN(C)CC(NS(=O)(=O)c1cc(C#N)ccc1Oc1cc(Cl)cc(Cl)c1)C(=O)O (stereo not drawn) [Example 1-40] | 190 °C | > 0.5 µM
15 | N#Cc1ccc(Oc2cc(Cl)cc(Cl)c2)c(S(=O)(=O)NC2CN(Cc3ccccc3)CCN(Cc3ccccc3)C2)c1 [Example 1-41] |  | > 0.5 µM
16 | Cl.N#Cc1ccc(Oc2cc(Cl)cc(Cl)c2)c(S(=O)(=O)C2CCNCC2)c1 [Example 1-47] | 220 to 226 °C (dec.) | 
